From patent publication US20190289874A1, “STAIN PREVENTION FORMULATIONS” (WM. WRIGLEY JR. COMPANY, priority 2016, published 2019)

Experiment: In vitro bovine teeth test (stain prevention solutions)
Conditions: for concentration showing a significant visible whitening effect: % by weight of solution, bovine teeth test; for stain-prevention effect: bovine teeth tests, dose response of solutions of Table 1 (FIG. 1), change in whitening index
Description: HAD assay and the bovine teeth test were employed by methods generally known in the art for screening stain prevention actives. HAD assays generally included pre-coating a HAD disc with saliva for 1-2 hours and subsequently exposing the disc to a staining broth containing tea, coffee, gastric mucin, trypticase soy broth and saliva for four days. Each day, the disc was moved from staining broth to a solution with a stain prevention formulation three times. The process was repeated for four days. The disc was dried and the color was measured. […] The color of the bovine teeth was measured before and after staining.
To evaluate stain prevention effect, the whitening index of the teeth before and after staining and treatment was calculated. The white index, W, is defined as:
W*=√{square root over ((L*−1.00)^2+(a*)^2+(b*)^2)}
A pure white substance will have W value of […]. The higher the value of ΔW, the whiter the sample would be.
In total, 4-6 HA discs or bovine teeth were tested for each compound or combination. The values were averaged.

SMILES	concentration showing a significant visible whitening effect [%]	stain-prevention effect	relative effectiveness for stain prevention (comparison between compounds or combinations)
CCCCCCCCCCCC(=O)N[C@@H](CCCN=C(N)N)C(=O)OCC [LAE, lauroyl arginine ethyl ether]	≥ 0.05	very effective	–
OO [hydrogen peroxide, reference compound]	≥ 0.25	–	–
O=P(O)(O)OP(=O)(O)OP(=O)(O)O [STP, sodium tripolyphosphate]	≥ 0.1	very effective	more effective
O=P([O-])([O-])OP(=O)([O-])[O-].[Na+].[Na+].[Na+].[Na+] [SPP, sodium pyrophosphate]	–	very effective	–
NC(N)=O [Urea, urea]	–	very effective	–
